From patent US8952024B2, “Herbicidal pyrimidone derivatives” (E I du Pont de Nemours and Company, priority 2009, dated 2015)

Tests used:
Assay type in all cases: in vivo
[1] = system: giant foxtail (Setaria faberii); assay: Test B pre-/postemergence plant response
Excerpt: (§1) Seeds of plant species selected from blackgrass (Alopecurus myosuroides), downy bromegrass (Bromus tectorum), green foxtail (Setaria viridis), Italian ryegrass (Lolium multiflorum), wheat (Triticum aestivum), wild oat (Avena fatua), deadnettle (henbit deadnettle, Lamium amplexicaule), galium (catchweed bedstraw, Galium aparine), bermudagrass (Cynodon dactylon), Surinam grass (Brachiaria decumbens), cocklebur (Xanthium strumarium), corn (Zea mays), large crabgrass (Digitaria sanguinalis), woolly cupgrass (Eriochloa villosa), giant foxtail (Setaria faberii), goosegrass (Eleusine indica), johnsongrass (Sorghum halepense), kochia (Kochia scoparia), lambsquarters (Chenopodium album), morningglory (Ipomoea coccinea), nightshade (eastern black nightshade, Solanum ptycanthum), yellow nutsedge (Cyperus esculentus), pigweed (Amaranthus retroflexus), ragweed (common ragweed, Ambrosia elatior), Russian thistle (Salsola kali), soybean (Glycine max), sunflower (common oilseed sunflower, Helianthus annuus) and velvetleaf (Abutilon theophrasti) were planted into a blend of loam soil and sand and treated preemergence with test compounds formulated in a non-phytotoxic solvent mixture which included a surfactant.
(§2) At the same time, plants selected from these crop and weed species and also winter barley (Hordeum vulgare), canarygrass (Phalaris minor), chickweed (Stellaria media) and windgrass (Apera spica-venti) were planted in pots containing Redi-Earth® planting medium (Scotts Company, 14111 Scottslawn Road, Marysville, Ohio 43041) comprising spaghnum peat moss, vermiculite, wetting agent and starter nutrients and treated with postemergence applications of some of the test chemicals formulated in the same manner. Plants ranged in height from 2 to 18 cm (1- to 4-leaf stage) for postemergence treatments.
(§3) Treated plants and controls were maintained in a greenhouse for 13 to 15 days, after which time all treated plants were visually evaluated and compared to controls. Plant response ratings, summarized in Table B, are based on a scale of 0 to 100 where 0 is no effect and 100 is complete control. A dash (-) response means no test result.

[2] = system: johnsongrass (Sorghum halepense); assay: Test B pre-/postemergence plant response
Excerpt: as §1, §2, §3

[3] = system: lambsquarters (Chenopodium album); assay: Test B pre-/postemergence plant response
Excerpt: as §1, §2, §3

[4] = system: green foxtail (Setaria viridis); assay: Test B pre-/postemergence plant response
Excerpt: as §1, §2, §3

[5] = system: pigweed (Amaranthus retroflexus); assay: Test B pre-/postemergence plant response
Excerpt: as §1, §2, §3

[6] = system: kochia (Kochia scoparia); assay: Test B pre-/postemergence plant response
Excerpt: as §1, §2, §3

[7] = system: bermudagrass (Cynodon dactylon); assay: Test B pre-/postemergence plant response
Excerpt: as §1, §2, §3

[8] = system: corn (Zea mays); assay: Test B pre-/postemergence plant response
Excerpt: as §1, §2, §3

[9] = system: soybean (Glycine max); assay: Test B pre-/postemergence plant response
Excerpt: as §1, §2, §3

[10] = system: cocklebur (Xanthium strumarium); assay: Test B pre-/postemergence plant response
Excerpt: as §1, §2, §3

[11] = system: ragweed (common ragweed, Ambrosia elatior); assay: Test B pre-/postemergence plant response
Excerpt: as §1, §2, §3

[12] = system: wild oat (Avena fatua); assay: Test B pre-/postemergence plant response
Excerpt: as §1, §2, §3

[13] = system: barnyardgrass (Echinochloa crus-galli); assay: Test B flooded paddy test
Method in brief: (§4)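 Rice, umbrella sedge, ducksalad and barnyardgrass were grown to the 2-leaf stage, flooded to 3 cm, and compound was applied directly to the paddy water, with that depth kept throughout. After 13 to 15 days in the greenhouse, plants were visually rated against controls on a 0 (no effect) to 100 (complete control) scale.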

[14] = system: rice (Oryza sativa); assay: Test B flooded paddy test
Method in brief: as §4

[15] = system: ducksalad (Heteranthera limosa); assay: Test B flooded paddy test
Method in brief: as §4

[16] = system: umbrella sedge (Cyperus difformis); assay: Test B flooded paddy test
Method in brief: as §4

[17] = 31 g ai/ha, postemergence, scale 0 to 100, 0 is no effect, 100 is complete control
[18] = 62 g ai/ha, postemergence, 0 is no effect, 100 is complete control, 13 to 15 days
[19] = Postemergence, 125 g ai/ha, visual rating after 13 to 15 days, scale 0 (no effect) to 100 (complete control)
[20] = Postemergence, 250 g ai/ha, scale 0 to 100 (0 no effect, 100 complete control)
[21] = Preemergence, 31 g ai/ha, scale 0 to 100 (0 no effect, 100 complete control)
[22] = Preemergence, 62 g ai/ha, scale 0 to 100, 0 no effect, 100 complete control
[23] = Preemergence, 125 g ai/ha, scale 0 to 100, 0 no effect, 100 complete control
[24] = Preemergence, 250 g ai/ha, 0 to 100 scale
[25] = 250 g ai/ha, flooded paddy test, visual rating on 0 to 100 scale (0 no effect, 100 complete control) after 13 to 15 days
[26] = Flood (flooded paddy test), 62 g ai/ha, scale of 0 to 100 where 0 is no effect and 100 is complete control, 13 to 15 days

## CCCCn1c(CCC)ncc(C(=O)C2=C(O)CCCC2=O)c1=O [Compound 75]
[1]; [17]
  Plant response rating, Foxtail, Giant: 75
[1]; [18]
  Foxtail, Giant plant response rating (0 to 100 scale): 80
[1]; [19]
  Plant response rating, Foxtail, Giant: 85
[1]; [20]
  Plant response rating, Foxtail, Giant: 95
[1]; [21]
  Plant response rating, Foxtail, Giant: 0
[1]; [22]
  Plant response rating, Foxtail, Giant: 25
[1]; [23]
  Plant response rating, Foxtail, Giant: 80
[1]; [24]
  Foxtail, Giant plant response rating: 80
[2]; [17]
  Plant response rating, Johnsongrass: 0
[2]; [18]
  Johnsongrass plant response rating (0 to 100 scale): 10
[2]; [19]
  Plant response rating, Johnsongrass: 20
[2]; [20]
  Plant response rating, Johnsongrass: 75
[2]; [21]
  Plant response rating, Johnsongrass: 0
[2]; [22]
  Plant response rating, Johnsongrass: 10
[2]; [23]
  Plant response rating, Johnsongrass: 65
[2]; [24]
  Johnsongrass plant response rating: 70
[3]; [17]
  Plant response rating, Lambsquarters: 98
[3]; [18]
  Lambsquarters plant response rating (0 to 100 scale): 100
[3]; [19]
  Plant response rating, Lambsquarters: 100
[3]; [20]
  Plant response rating, Lambsquarters: 100
[3]; [21]
  Plant response rating, Lambsquarters: 98
[3]; [22]
  Plant response rating, Lambsquarters: 100
[3]; [23]
  Plant response rating, Lambsquarters: 100
[3]; [24]
  Lambsquarters plant response rating: 100
[4]; [17]
  Plant response rating, Foxtail, Green: 65
[4]; [18]
  Foxtail, Green plant response rating (0 to 100 scale): 85
[4]; [19]
  Plant response rating, Foxtail, Green: 90
[4]; [20]
  Plant response rating, Foxtail, Green: 90
[4]; [21]
  Plant response rating, Foxtail, Green: 5
[4]; [22]
  Plant response rating, Foxtail, Green: 50
[4]; [23]
  Plant response rating, Foxtail, Green: 50
[4]; [24]
  Foxtail, Green plant response rating: 98
[5]; [17]
  Plant response rating, Pigweed: 100
[5]; [18]
  Pigweed plant response rating (0 to 100 scale): 100
[5]; [19]
  Plant response rating, Pigweed: 100
[5]; [20]
  Plant response rating, Pigweed: 100
[5]; [21]
  Plant response rating, Pigweed: 98
[5]; [22]
  Plant response rating, Pigweed: 100
[5]; [23]
  Plant response rating, Pigweed: 100
[5]; [24]
  Pigweed plant response rating: 100
[6]; [17]
  Plant response rating, Kochia: 75
[6]; [18]
  Kochia plant response rating (0 to 100 scale): 95
[6]; [19]
  Plant response rating, Kochia: 100
[6]; [20]
  Plant response rating, Kochia: 100
[6]; [21]
  Plant response rating, Kochia: 80
[6]; [22]
  Plant response rating, Kochia: 90
[6]; [23]
  Plant response rating, Kochia: 90
[6]; [24]
  Kochia plant response rating: 95
[7]; [17]
  Plant response rating, Bermudagrass: 90
[7]; [18]
  Bermudagrass plant response rating (0 to 100 scale): 98
[7]; [19]
  Plant response rating, Bermudagrass: 98
[7]; [20]
  Plant response rating, Bermudagrass: 98
[7]; [21]
  Plant response rating, Bermudagrass: 98
[7]; [22]
  Plant response rating, Bermudagrass: 100
[7]; [23]
  Plant response rating, Bermudagrass: 100
[7]; Preemergence, 250 g ai/ha, 0 to 100 scale, 0 no effect, 100 complete control
  Bermudagrass plant response rating: 100
[8]; [17]
  Plant response rating, Corn: 0
[8]; [18]
  Corn plant response rating (0 to 100 scale): 0
[8]; [19]
  Plant response rating, Corn: 20
[8]; [20]
  Plant response rating, Corn: 55
[8]; [21]
  Plant response rating, Corn: 0
[8]; [22]
  Plant response rating, Corn: 0
[8]; [23]
  Plant response rating, Corn: 0
[8]; [24]
  Corn plant response rating: 0
[9]; [17]
  Plant response rating, Soybean: 80
[9]; [18]
  Soybean plant response rating (0 to 100 scale): 95
[9]; [19]
  Plant response rating, Soybean: 98
[9]; [20]
  Plant response rating, Soybean: 98
[10]; [17]
  Plant response rating, Cocklebur: 40
[10]; [18]
  Cocklebur plant response rating (0 to 100 scale): 80
[10]; [19]
  Plant response rating, Cocklebur: 95
[10]; [20]
  Plant response rating, Cocklebur: 95
[10]; [21]
  Plant response rating, Cocklebur: 10
[10]; [22]
  Plant response rating, Cocklebur: 20
[10]; [23]
  Plant response rating, Cocklebur: 75
[10]; [24]
  Cocklebur plant response rating: 90
[11]; [17]
  Plant response rating, Ragweed: 80
[11]; [18]
  Ragweed plant response rating (0 to 100 scale): 85
[11]; [19]
  Plant response rating, Ragweed: 90
[11]; [20]
  Plant response rating, Ragweed: 95
[11]; [21]
  Plant response rating, Ragweed: 75
[11]; [22]
  Plant response rating, Ragweed: 75
[11]; [23]
  Plant response rating, Ragweed: 95
[11]; [24]
  Ragweed plant response rating: 95
[12]; [17]
  Plant response rating, Oat, Wild: 0
[12]; [18]
  Oat, Wild plant response rating (0 to 100 scale): 20
[12]; [19]
  Plant response rating, Oat, Wild: 50
[12]; [20]
  Plant response rating, Oat, Wild: 60
[12]; [21]
  Plant response rating, Oat, Wild: 0
[12]; [22]
  Plant response rating, Oat, Wild: 0
[12]; [23]
  Plant response rating, Oat, Wild: 0
[12]; [24]
  Oat, Wild plant response rating: 0
[13]; [25]
  Plant response rating, Flood, Barnyardgrass: 60
[13]; [26]
  Plant response rating, Barnyardgrass: 20
[14]; [25]
  Plant response rating, Flood, Rice: 45
[14]; [26]
  Plant response rating, Rice: 0
[15]; [25]
  Plant response rating, Flood, Ducksalad: 50
[15]; [26]
  Plant response rating, Ducksalad: 30
[16]; [25]
  Plant response rating, Flood, Sedge, Umbrella: 50
[16]; [26]
  Plant response rating, Sedge, Umbrella: 0
